Measurements published in ChEMBL document CHEMBL4613261, “Metabolic and Pharmaceutical Aspects of Fluorinated Compounds” (J Med Chem, 2020).

Target: T1, Lysine decarboxylase (Hafnia alvei) (UniProt P05033)
T1 sequence (whole entry): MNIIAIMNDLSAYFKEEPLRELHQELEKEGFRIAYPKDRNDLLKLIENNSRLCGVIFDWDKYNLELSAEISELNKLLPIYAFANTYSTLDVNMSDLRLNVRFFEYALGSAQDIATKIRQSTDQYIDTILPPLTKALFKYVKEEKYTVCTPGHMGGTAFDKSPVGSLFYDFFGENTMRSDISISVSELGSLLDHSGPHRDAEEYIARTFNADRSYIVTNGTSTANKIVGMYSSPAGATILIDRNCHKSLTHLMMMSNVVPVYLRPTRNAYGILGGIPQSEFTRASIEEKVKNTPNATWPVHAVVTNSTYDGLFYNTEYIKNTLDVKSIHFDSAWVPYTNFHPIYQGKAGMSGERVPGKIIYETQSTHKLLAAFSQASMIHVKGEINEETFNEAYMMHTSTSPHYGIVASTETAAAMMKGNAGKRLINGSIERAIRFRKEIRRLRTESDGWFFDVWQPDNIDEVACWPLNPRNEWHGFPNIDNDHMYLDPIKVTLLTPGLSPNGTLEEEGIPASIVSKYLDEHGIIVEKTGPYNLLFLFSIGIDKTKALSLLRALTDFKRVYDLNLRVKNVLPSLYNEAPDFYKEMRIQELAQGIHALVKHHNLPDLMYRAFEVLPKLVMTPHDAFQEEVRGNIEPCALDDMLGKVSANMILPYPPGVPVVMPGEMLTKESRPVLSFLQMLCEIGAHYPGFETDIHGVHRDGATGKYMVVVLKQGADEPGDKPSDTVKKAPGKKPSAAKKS
Description: Time dependent inhibition of Hafnia alvei lysine decarboxylase assessed as inactivation half life using L-lysine by Kitz-Wilson analysis

C=C(F)[C@](N)(CCCCN)C(=O)O
T1/2: 2.8 min

C=C(F)[C@@](N)(CCCCN)C(=O)O
T1/2: 3.6 min
